From PMC7413308 (ARKIVOC : free online journal of organic chemistry, 2018)

Key:
[1] = In vitro microsomal stability of analogs; format: in vitro ADME, human; details: for half-life / remaining at 2 h: human, liver microsomes; for remaining at 2 h: Microsomal stability (HLM) % remaining
[2] = In vitro microsomal stability of analogs; format: in vitro ADME, mouse
[3] = tested on: HEK293 (kidney) cell line; assay: In vitro cytotoxicity, cell viability; format: cell-based; details: 48 h incubation, Cell-Titer Glo cell viability
HEPG2 (liver) cell line = assay: In vitro cytotoxicity, cell viability; format: cell-based; details: 48 h incubation, Cell-Titer Glo cell viability
mice = assay: Sensorimotor coordination on rotating rod after oral gavage; format: in vivo; details: oral gavage 40 mg/kg, rotating rod max 3 minutes, three time-points
[4] = footnote d: assessed at 1-hour incubation time
[5] = mouse, liver microsomes, Microsomal stability (MLM) % remaining, after 2 hr

SMILES | Microsomal stability (HLM) % remaining [1, 4] | Microsomal stability (HLM) Half-life [1, 4] | Microsomal stability (MLM) % remaining [2, 4] | Microsomal stability (MLM) Half-life [2, 4] | HEK293 LD50 [3] [µM] | HEPG2 LD50 (HEPG2 (liver) cell line) [µM] | Microsomal stability (HLM) % remaining ([1]; after 2 hr) [%] | Microsomal stability (HLM) Half-life ([1]; after 2 hr) [min] | Microsomal stability (MLM) % remaining ([2]; after 2 hr) [%] | Effect on sensorimotor coordination (motor impairment, sedation/ataxia) (mice) | Microsomal stability (MLM) Half-life ([2]; after 2 hr) [min] | half-life [1] [h] | remaining at 2 h ([1]; after 2 hr) [%] | half-life ([2]; mouse, liver microsomes) [h] | remaining at 2 h [2, 5] [%] | remaining at 1 h ([2]; mouse, liver microsomes, Microsomal stability (MLM) % remaining, footnote d: assessed at 1-hour incubation time) [%]
C#Cc1ccc2c(c1)C(c1ccccc1F)=N[C@@H](C)c1c(C(=O)NC3CC3)ncn1-2 [8c, (S)-N-Cyclopropyl-8-ethynyl-6-(2-fluorophenyl)-4-methyl-4H-benzo[f]imidazo[1,5-a][1,4]diazepine-3-carbox-amide] | 89.0 ± 0.4^d % | 1625 ± 803^d min | 72.0 ± 0.3^d % | 320 ± 34^d min | 63.8 ± 3.0 | 93.5 ± 5.7 | – | – | – | – | – | – | – | – | – | –
C#Cc1ccc2c(c1)C(c1ccccc1F)=N[C@@H](C)c1c(C(=O)NC(C)C)ncn1-2 [8d, (S)-8-Ethynyl-6-(2-fluorophenyl)-N-isopropyl-4-methyl-4H-benzo[f]imidazo[1,5-a][1,4]diazepine-3-carboxa-mide] | – | – | – | – | 80.2 ± 11.1 | 56.9 ± 4.8 | 38.0 ± 0.5 | 107 ± 10 | 75.0 ± 0.3 | did not show any motor impairment | – | – | – | – | – | –
C#Cc1ccc2c(c1)C(c1ccccc1F)=N[C@@H](C)c1c(C(=O)NC(C)(C)C)ncn1-2 [8e, (S)-N-(tert-Butyl)-8-ethynyl-6-(2-fluorophenyl)-4-methyl-4H-benzo[f]imidazo[1,5-a][1,4]diazepine-3-carbox-amide] | – | – | – | – | 33.6 ± 3.0 | 43.4 ± 4.0 | 63.0 ± 0.3 | 205 ± 14 | 52.0 ± 0.3 | did not show any motor impairment | 142 ± 9 | – | – | – | – | –
C#Cc1ccc2c(c1)C(c1ccccc1F)=N[C@@H](C)c1c(-c3nc(CC)no3)ncn1-2 [9b, (S)-3-Ethyl-5-(8-ethynyl-6-(2-fluorophenyl)-4-methyl-4H-benzo[f]imidazo[1,5-a][1,4]diazepin-3-yl)-1,2,4-oxadiazole] | – | – | – | – | 46.9 ± 6.6 | 35.1 ± 3.7 | – | – | – | exhibited no sensorimotor impairment | – | 9.38 ± 2.05 | 80 ± 0.4 | 3.55 ± 0.283 | 63 ± 0.3 | –
CCOC(=O)c1ncn2c1[C@H](C)N=C(c1ccccc1F)c1cc(C3CC3)ccc1-2 [compound 3, (S)-Ethyl-8-cyclopropyl-6-(2-fluorophenyl)-4-methyl-4H-benzo[f]imidazo[1,5-a][1,4]diazepine-3-carboxylate] | – | – | – | – | 58.0 ± 6.0 | 87.0 ± 6.6 | – | – | – | – | – | < 0.0833 | – | 0.767 ± 0.05 | 16 ± 0.4 | –
C#Cc1ccc2c(c1)C(c1ccccc1F)=N[C@@H](C)c1c(C(=O)O)ncn1-2 [compound 6, (S)-8-Ethynyl-6-(2-fluorophenyl)-4-methyl-4H-benzo[f]imidazo[1,5-a][1,4]diazepine-3-carboxylic acid] | – | – | – | – | >400 | >400 | – | – | – | – | – | 5.97 ± 0.933 | 74 ± 0.4 | 2.32 ± 0.183 | – | 54 ± 0.3
C#Cc1ccc2c(c1)C(c1ccccc1F)=N[C@@H](C)c1c(C(=O)SCC)ncn1-2 [compound 7, (S)-S-Ethyl-8-ethynyl-6-(2-fluorophenyl)-4-methyl-4H-benzo[f]imidazo[1,5-a][1,4]diazepine-3-carbothioate] | – | – | – | – | 20.5 ± 4.7 | 30.2 ± 9.7 | 28.0 ± 0.3 | 101 ± 19 | 9.0 ± 0.5 | – | 46 ± 6 | – | – | – | – | –
C#Cc1ccc2c(c1)C(c1ccccc1F)=N[C@@H](C)c1c(C#N)ncn1-2 [compound 10, (S)-8-Ethynyl-6-(2-fluorophenyl)-4-methyl-4H-benzo[f]imidazo[1,5-a][1,4]diazepine-3-carbonitrile] | – | – | – | – | 81.6 ± 6.7 | 57.1 ± 5.6 | – | – | 17.0 ± 0.6 | – | – | 0.683 ± 0.0833 | 9 ± 0.3 | 0.967 ± 0.1 | 16 | –
